Entries after “also recorded” stand apart in the source; their conditions may differ. Read-outs that look alike come from different tables or passages of the source.
Key:
[1] = Parallel artificial membrane permeability assay (PAMPA); type: in vitro ADME; conditions: for Papp at 4 h, 400 μM: 400 μM in PBS, room temperature, read-out: Flux; for Permeability Classification (passive transport): BCS classification
Method: Samples were tested in triplicates in three separate experiments.

[2] = tested on: NNMT activity in 3T3-L1 pre-adipocytes and differentiated adipocytes; assay: Quantitative measurement of NNMT reaction product 1-MNA in cultured cells (LC/MS/MS); type: cell-based; conditions: 10 μM, 24 h
Method: Differentiation of 3T3-L1 pre-adipocytes. […] Briefly, standard culture media was supplemented with scheduled addition of adipogenic agents [3-isobutyl-1methyl xanthine (IBMX), Sigma Aldrich; MO, USA), dexamethasone (Sigma Aldrich; MO, USA), insulin (Gibco Life Technologies Inc.; Grand Island, N.Y., USA)] over 10 days to promote differentiation of 3T3-L1 fibroblasts into adipocytes; a combination of 1 mM IBMX, 1 μM dexamethasone, and 10 μg/ml of insulin in media were added to fully confluent 3T3-L1 fibroblasts for three days (days 0-3) to initiate differentiation. At day 3, the media was replaced with culture media supplemented with insulin (10 μg/ml). After day 6, cells were maintained in culture media until described experiments were begun (days 8-10).
Cellular 1-MNA concentrations were determined using an ultra-sensitive high-resolution AB Sciex 6500 Q-trap mass spectrometer coupled to an Agilent 1260 ultra-high pressure liquid chromatography (LC/MS/MS) system. Using multiple reaction monitoring (MRM) positive ion mode, the 1-MNA NNMT reaction product was quantified from peak area ratios using AB Sciex Analyst and MultiQuant 2.1 software and the parent precursor and Q3 masses set to m/z 137.1 and 94.1, respectively. Fragment ions at m/z of 92.1 and 77.9 were additionally used for the detection and confirmation of 1-MNA, respectively. […]. To determine the effect of NNMT inhibitor on NNMT activity in the pre-adipocytes and differentiated adipocytes (8×10^4 cells/well seeded prior to beginning differentiation), cells were treated with 30 μM inhibitor for 24 h. Similarly, to compare the relative effects of multiple NNMT inhibitors on NNMT activity in cultured adipocytes, differentiated adipocytes in 6-well plates were treated with 10 μM test compound for 24 h. Following treatment, media was replaced with 80% (v/v) methanol (cooled to −80° C.) containing 500 nmol 6-chloronicotinamide (6-CN) as an internal standard (IS) to extract cellular metabolites. Adherent cells were scrapped, then centrifuged at 4° C. and 13000 g for 15 min, and the resulting supernatants processed using established protocols. […]. Data were subsequently normalized to the IS peak area and transformed as % control values for cross-sample comparisons. […] Choice of inhibitor concentrations and time period was chosen based on the results from the MTT studies.

[3] = molecular target: T1, human NNMT (mt-hNNMT) (Homo sapiens, UniProt P40261, E101A/E103A/K100A); conditions: values from applicant's published SAR study; read-out: IC50 (NNMT inhibition); cited from earlier work
T1 sequence (P40261 1-261 K100A/E101A/E103A limits assumed): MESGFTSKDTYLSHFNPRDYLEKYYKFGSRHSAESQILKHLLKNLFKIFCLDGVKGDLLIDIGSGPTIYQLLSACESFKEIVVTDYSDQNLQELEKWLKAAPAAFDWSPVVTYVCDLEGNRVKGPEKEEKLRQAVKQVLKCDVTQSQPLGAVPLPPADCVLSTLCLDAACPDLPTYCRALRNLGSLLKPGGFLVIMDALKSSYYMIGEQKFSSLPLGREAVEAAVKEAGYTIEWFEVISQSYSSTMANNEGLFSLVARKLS

[4] = molecular target: recombinant human DNMT1 enzyme (Homo sapiens, UniProt P26358); assay: DNMT1 activity assay (radiometric); type: biochemical
[5] = molecular target: recombinant human PRMT3 enzyme (Homo sapiens, UniProt O60678); assay: PRMT3 activity assay (radiometric); type: biochemical; conditions: 10 nM to 200 μM (1,8-diMQ) or 600 μM (5-amino-1MQ)
From the text: Test compounds were screened in biochemical assays for activity against three structurally similar methyltransferases, including catechol-O-methyltransferase (COMT), DNA (cytosine-5)-methyltransferase 1 (DNMT1), and protein arginine methyltransferase 3 (PRMT3). Additional biochemical assays were used to test the ability of compounds to inhibit nicotinamide phosphoribosyl transferase (NAMPT) and NAD+-dependent protein deacetylase sirtuin 1 (SIRT1), two enzymes in the NAD+ biosynthesis/salvage pathway. All assays were performed by Reaction Biology Corporation (RBC; Malvern, Pa., USA) and complete assay details are noted below. For each test compound, IC50 values were calculated from dose-response curves established with 10 concentrations of a half-log dilution series. For each assay, established enzyme specific inhibitors were included as positive controls for enzyme function and assay reproducibility. IC50 values were determined by non-linear least-squares fitting of a 4-parameter dose-response curve to collected data points (Graphpad Prism 7.0; La Jolla, Calif., USA).
PRMT3 activity assay. […] The analogues, 1,8-diMQ and 5-amino-1MQ were tested at concentrations from 200 μM-10 nM and 600 μM-10 nM, respectively. Reactions were performed with 5 μM histone H3 (histone L-arginine) substrate, 1 μM radiolabeled S-adenosyl-L-[methyl-3H]methionine (SAM) co-substrate, and recombinant human PRMT3 enzyme. Activity was monitored via quantification of radiolabeled reaction product histone [methyl-3H]-L-arginine.

[6] = molecular target: T2, recombinant human COMT enzyme (Homo sapiens, UniProt P21964); assay: COMT activity assay (radiometric); type: biochemical; conditions: maximal tested concentration 200 μM
T2 construct: Reaction Biology Corporation (ran the assay)
T2 sequence (P21964 1-271): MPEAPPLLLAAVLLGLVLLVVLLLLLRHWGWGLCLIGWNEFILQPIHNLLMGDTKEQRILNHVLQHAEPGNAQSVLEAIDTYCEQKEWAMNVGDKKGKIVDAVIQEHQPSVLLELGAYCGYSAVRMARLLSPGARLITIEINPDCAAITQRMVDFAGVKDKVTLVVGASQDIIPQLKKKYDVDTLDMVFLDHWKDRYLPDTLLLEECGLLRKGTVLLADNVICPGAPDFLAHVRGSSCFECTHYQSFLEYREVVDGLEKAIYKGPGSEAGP

[7] = Bi-directional permeability assay with Caco-2 cells; conditions: human, Caco-2, pH 7.4
[8] = tested on: Caco-2 cells; assay: as above
[9] = molecular target: T1, human NNMT (mt-hNNMT); assay: NNMT activity assay (HPLC-UV detection of MNA), NNMT IC50 curves; conditions: NNMT Inhibition IC50, mean ± SD of duplicate or triplicate measurements; NI = no observable inhibition

Sequence of recombinant human DNMT1 enzyme (P26358 whole entry): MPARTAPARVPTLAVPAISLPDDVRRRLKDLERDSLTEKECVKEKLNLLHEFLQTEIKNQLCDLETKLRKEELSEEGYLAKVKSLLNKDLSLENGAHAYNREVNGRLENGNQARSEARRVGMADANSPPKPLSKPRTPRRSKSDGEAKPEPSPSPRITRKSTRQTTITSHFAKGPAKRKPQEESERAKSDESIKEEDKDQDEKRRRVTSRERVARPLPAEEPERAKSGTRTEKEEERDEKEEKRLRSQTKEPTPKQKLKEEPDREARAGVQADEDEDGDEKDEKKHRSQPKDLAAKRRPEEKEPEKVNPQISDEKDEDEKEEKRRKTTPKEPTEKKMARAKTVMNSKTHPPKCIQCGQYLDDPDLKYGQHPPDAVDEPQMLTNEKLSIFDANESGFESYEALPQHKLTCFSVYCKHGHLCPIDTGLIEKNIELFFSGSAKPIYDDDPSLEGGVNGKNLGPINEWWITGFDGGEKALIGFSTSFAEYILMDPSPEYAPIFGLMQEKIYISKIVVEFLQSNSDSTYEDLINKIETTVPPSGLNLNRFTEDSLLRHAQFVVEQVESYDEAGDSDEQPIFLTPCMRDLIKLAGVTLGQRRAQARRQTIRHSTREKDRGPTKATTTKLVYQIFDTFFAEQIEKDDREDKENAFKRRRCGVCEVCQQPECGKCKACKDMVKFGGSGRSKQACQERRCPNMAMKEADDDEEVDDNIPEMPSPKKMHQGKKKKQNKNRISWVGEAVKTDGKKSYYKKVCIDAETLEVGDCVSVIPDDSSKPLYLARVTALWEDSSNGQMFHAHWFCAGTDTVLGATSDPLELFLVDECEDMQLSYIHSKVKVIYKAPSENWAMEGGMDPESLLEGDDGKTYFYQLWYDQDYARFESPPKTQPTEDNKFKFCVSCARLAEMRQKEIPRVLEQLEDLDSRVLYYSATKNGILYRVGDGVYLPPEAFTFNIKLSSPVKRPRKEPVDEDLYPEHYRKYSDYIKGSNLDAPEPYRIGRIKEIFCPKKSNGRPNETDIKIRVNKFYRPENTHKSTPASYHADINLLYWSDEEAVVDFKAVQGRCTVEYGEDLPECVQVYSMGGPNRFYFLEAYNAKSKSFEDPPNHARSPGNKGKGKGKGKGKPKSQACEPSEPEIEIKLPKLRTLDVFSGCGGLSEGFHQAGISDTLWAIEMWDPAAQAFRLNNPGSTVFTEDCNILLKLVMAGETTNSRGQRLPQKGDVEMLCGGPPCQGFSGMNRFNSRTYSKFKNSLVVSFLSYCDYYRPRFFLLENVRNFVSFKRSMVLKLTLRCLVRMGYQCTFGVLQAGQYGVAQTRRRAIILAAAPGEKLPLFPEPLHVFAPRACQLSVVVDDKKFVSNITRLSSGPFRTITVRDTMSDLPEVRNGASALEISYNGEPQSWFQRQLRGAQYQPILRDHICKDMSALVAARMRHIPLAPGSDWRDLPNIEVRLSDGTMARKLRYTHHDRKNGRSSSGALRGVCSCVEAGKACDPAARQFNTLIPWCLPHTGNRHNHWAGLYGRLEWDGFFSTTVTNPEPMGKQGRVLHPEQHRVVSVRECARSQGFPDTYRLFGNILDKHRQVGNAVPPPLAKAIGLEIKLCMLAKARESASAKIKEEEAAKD
Sequence of recombinant human PRMT3 enzyme (O60678 whole entry): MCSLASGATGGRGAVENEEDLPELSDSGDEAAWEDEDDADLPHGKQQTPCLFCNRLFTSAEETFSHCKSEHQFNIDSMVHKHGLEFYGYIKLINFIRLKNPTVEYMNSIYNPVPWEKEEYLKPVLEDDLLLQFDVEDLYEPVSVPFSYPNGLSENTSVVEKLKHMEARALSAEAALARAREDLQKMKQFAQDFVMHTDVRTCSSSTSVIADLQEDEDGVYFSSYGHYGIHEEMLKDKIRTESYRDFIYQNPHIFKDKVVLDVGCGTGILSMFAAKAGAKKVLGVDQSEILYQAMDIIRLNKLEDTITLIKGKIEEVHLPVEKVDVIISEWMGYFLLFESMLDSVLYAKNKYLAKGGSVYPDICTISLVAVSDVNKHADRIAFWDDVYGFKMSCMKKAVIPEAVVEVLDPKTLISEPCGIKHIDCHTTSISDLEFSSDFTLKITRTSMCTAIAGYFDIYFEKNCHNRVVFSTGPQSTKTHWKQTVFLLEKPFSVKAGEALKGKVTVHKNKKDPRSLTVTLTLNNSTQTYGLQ

Cc1cc(C)[n+](C)c2c(C)cccc12 [1,2,4,8-tetraMQ]
Papp at 4 h, 400 μM [1]: 0.698 ×10⁻⁶ cm/s
Permeability Classification (passive transport) [1]: low, but non-zero, permeability; also recorded: Low permeability
1-MNA levels in differentiated adipocytes relative to control [2]: did not significantly decrease
IC50 [3]: 109 µM

Cc1cccc2ccc[n+](C)c12 [1q]
Papp at 4 h, 400 μM [1]: 0.864 ×10⁻⁶ cm/s
Permeability Classification (passive transport) ([1]; listed as 1,8-diMQ): low, but non-zero, permeability; also recorded: Low permeability
inhibition of DNMT1 (in words) ([4]; 10 nM to 200 μM (1,8-diMQ) or 600 μM (5-amino-1MQ)): did not inhibit
IC50 ([4]; read-out: IC50, DNA (cytosine-5)-methyltransferase 1, NI: no inhibition): > 200 µM
inhibition of PRMT3 (in words) [5]: did not inhibit
inhibition at 200 µM [6]: 20%
Papp B→A at 2 h, 10 μM [7]: 1.78 ×10⁻⁶ cm/s
Mean A→B Papp ([8]; Caco-2, 10 μM, 2 h, pH 7.4, BLQ = no peak detected in receiver side): BLQ
Classification (active transport / efflux) ([8]; Caco-2, listed as 1,8-diMQ): very low bi-directional transport; also recorded: Low permeability
IC50 [9]: 1.8 ± 0.5 µM

— patent publication US11401243B2, “Quinoline derived small molecule inhibitors of nicotinamide N-methyltransferase (NNMT) and uses thereof” (priority 2017, dated 2022)
